The values below come from patent US12497358B2, “Inhibitor of EIF2α dephosphorylation” (THE ROYAL INSTITUTION FOR THE ADVANCEMENT OF …, priority 2021, dated 2025).

Series [1] relates to P-elF2α dependent read-through of Atf4 uORFs (Atf4-fluc reporter) in HEK293 cells. Put plainly: Atf4-luciferase reporter (Fluc/Rluc ratio) in transfected HEK293 cells. The series is classed as cell-based. The source says:
The Atf4- and Tacc3-luciferase constructs were made by cloning gBlock gene fragments (Integrated DNA Technologies) corresponding to 5′UTRs of Mus musculus Atf4 and Tacc3, fused to the 5′end of the fluc gene up to the Narl restriction enzyme site. Mutant versions of Atf4 and Tacc3 5′UTRs were designed with each ATG start codon of uORFs deleted. These 5′UTR gene fragments were cloned into Hindlll, Narl sites upstream of the firefly luciferase (fluc) gene in pGL3-promoter plasmids, thereby maintaining the final overlapping uORF with the main ORF for fluc (Promega™). FIG. 5A and FIG. 5B show a schematic of the formation of a pre-initiation complex that includes many factors including the a subunit (elF2α) that is dephosphorylated (FIG. 5A) or phosphorylated (FIG. 5B). The pre-initiation complex associates with the uORFs, where, if phosphorylated, translation initiation of the uORFs occurs upstream of Atf4 and continues to translate Atf4. However, if elF2α is dephosphorylated (FIG. 5A), no translation initiation occurs for Atf4 as the pre-initiation complex dissociates from the uORFs.
HEK293 cells were plated in 24-well plates at a density of 25,000 cells/well and incubated overnight. […] The cells were then lysed and the Fluc/Rluc ratio was determined using the Promega™ Dual-Luciferase Reporter kit (Madison, USA). […]

Series [2] deals with PAX7-expressing muscle stem cells (MuSCs). The series is described as follows: DDX6-positive RNA granules in PAX7-expressing MuSCs, ex vivo culture, immunofluorescence. Type of series: cell-based, mice. The protocol: (§1) Moreover, cells and single EDL myofibres were cultured in 39% Dulbecco's modified eagle medium (DMEM), 39% F12, 20% fetal calf serum (FCS) (Life Technologies), 2% UltroserG™ (Pall Life Sciences). C2C12 myoblasts were cultured in DMEM supplemented with 20% FCS. When indicated, culture conditions were supplemented with 0.1% dimethylsulfoxide (DMSO control, Sigma), 10 μM sal003 (Sigma), or 0.1-0.2 μM C15.
P-elF2α is required for the assembly of DDX6-positive(+) RNA granules in quiescent and self-renewing satellite cells. Activated muscle stem cells (MuSCs) dephosphorylate elF2α, RNA granules disassemble, and the myogenic program is activated.
Immunoassays were also performed to further confirm the effect of C15 on the dephosphorylation of elF2α. For immunofluorescence, cultured satellite cells were fixed in 4% paraformaldehyde (PFA), permeabilized with 0.2% Triton™, 50 mM NH4Cl and blocked in 5% horse serum (HS). Single EDL myofibers were fixed with 4% PFA, permeabilized with 0.1% Triton™ in PBS and blocked in 5% horse serum (HS) with 0.1% Triton™ in PBS. TA muscles were fixed for 2 hr in 0.5% PFA at 4° C. and equilibrated overnight in 20% sucrose at 4° C. Tissues were mounted in Frozen Section Compound (VWR) and flash frozen in a liquid nitrogen-cooled isopentane bath. […]

The test system of series [3] is MuSCs isolated from skeletal muscle of Dmd^mdx mice. Put plainly: Ex vivo culture of MuSCs from Dmd^mdx mice: PAX7 expression, myocolony size, fusion index. The series is classed as cell-based. The protocol: as §1
PAX7 expression marks MuSCs that retained stem cell properties to regenerate muscle. Under normal culture conditions, PAX7-expression is down regulated as MuSCs differentiate and lose their stem cell properties to regenerate muscle. […] Conceptually, these ex vivo results support a model by which pharmacological interventions that promote MuSC expansion (FIG. 10A, FIG. 10B, and FIG. 11) in the short term will lead to improved muscle mass and strength in the long term.
(§2) Immunoassays were also performed to further confirm the effect of C15 on the dephosphorylation of elF2α. For immunofluorescence, cultured satellite cells were fixed in 4% paraformaldehyde (PFA), permeabilized with 0.2% Triton™, 50 mM NH4Cl and blocked in 5% horse serum (HS). Single EDL myofibers were fixed with 4% PFA, permeabilized with 0.1% Triton™ in PBS and blocked in 5% horse serum (HS) with 0.1% Triton™ in PBS. TA muscles were fixed for 2 hr in 0.5% PFA at 4° C. and equilibrated overnight in 20% sucrose at 4° C. Tissues were mounted in Frozen Section Compound (VWR) and flash frozen in a liquid nitrogen-cooled isopentane bath. Transverse sections (10 μm) were permeabilized with 0.1% Triton™, 0.1M Glycine in PBS, and blocked in Mouse on Mouse (M.O.M.) reagent (Vector Labs).

For series [4], the system named is elF2α phosphorylation in C2C12 cells. The series is described as follows: Immunoblot of P-elF2α and total elF2α in C2C12 cell lysates. Type of series: cell-based. The protocol: as §1
For immunoblotting, cell lysates were obtained in RIPA buffer (ThermoFischer Scientific) supplemented with complete protease inhibitor cocktail (Roche) and phosphatase inhibitor cocktail (Sigma). The primary antibodies used were against PAX7 (DHSB), LAMININ (Sigma L9393), MYOG (Abcam 124800 and Santacruz sc-12732), and β-ACTIN (Sigma A5441). Alexa™ Fluor-488, Alexa™ Fluor-594 and Alexa™ Fluor-647 conjugated secondary anti-mouse IgG1, anti-mouse IgG2B or anti-rabbit antibodies (Life technologies) were used for immunofluorescence. Horseradish peroxidase (HRP) conjugated anti-mouse or anti-rabbit secondary antibodies (Jackson Immunoresearch) were used with the ECL™ Prime Western Blotting Detection reagents (GE Healthcare). Densitometry of immunoblots was performed with ImageJ™.
To determine the effect of C15 on elF2α phosphorylation, C2C12 cell lysates cultured for twelve hours in the presence of sal003 (10 μM) or C15 (0.1 μM and 0.2 μM) were immunoblotted.

In the next series the test system is Dmd^mdx mice. The series is described as follows: In vivo administration by osmotic pump in Dmd^mdx mouse model of Duchenne muscular dystrophy. The method, then: FIG. 20 is a schematic diagram of in vivo administration of C15 by an osmotic pump in the Dmd^mdx mouse model of Duchenne muscular dystrophy, specifically Alzet™ 2001 osmotic pumps were used to deliver 2.5 mg/kg/day of C15 with a vehicle containing 50:50 DMSO:[…] at a flow rate of 0.5 μL/hr by a subcutaneous implantation of the Alzet™ 2001 osmotic pumps into Dmd^mdx mouse, and 14 days later muscle was harvested for quantification by fluorescence of the myofibre CSA (red) and PAX7(+) (green) satellite cell compartment.
In this example, the effect of C15 on the dephosphorylated levels of elF2α was studied. Animal care practices were performed in accordance with the federal Canadian Council on Animal Care, as practiced by McGill University. All mice were maintained on a C57/BI6 background. Dmd^mdx mice, aged 8-10 weeks, were implanted (sub-cutaneously) with osmotic pumps (Alzet™) to deliver C15 at a rate of 2.5 mg/kg/day. C15 was dissolved in a 50:50 solution of DMSO:PEG400. At indicated time points, muscle was harvested for analysis by immunofluorescence.
as §2

Another series concerns satellite cells. The series is described as follows: Ex vivo expansion of cultured cells. Type of series: cell-based. The following applies: sal003 concentrations lower than 10 μM. The protocol: Moreover, cells and single EDL myofibres were cultured in 39% Dulbecco's modified eagle medium (DMEM), 39% F12, 20% fetal calf serum (FCS) (Life Technologies), 2% UltroserG™ (Pall Life Sciences). C2C12 myoblasts were cultured in DMEM supplemented with 20% FCS. […]

For the molecule `CC(C)(C)c1ccc(NC(=S)NC(NC(=O)/C=C/c2ccccc2)C(Cl)(Cl)Cl)cc1` (stereo not shown) [C15], the “P-elF2α activity to enable read-through of uORFs after incubation at 37° C. (stability)” value in series [1] (C15 10 μM, incubated at 37° C. for 0-3 weeks, HEK293 cells (FIG. 19)) was “maintained”. Besides, the “luciferase activity (Atf4-fluc reporter)” value in series [1] (HEK293 cells, overnight, 10 μM, compared with sal003, C10 and DMSO (FIG. 6)) is “significantly increases luciferase activity, higher than sal003 and C10”. Also, the “DDX6(+) RNA granules in PAX7-expressing MuSCs, culture of isolated MuSCs” value in series [2] (0.2 μM C15, 4-day culture (FIG. 9)) was “maintained”. In addition, in series [2] (0.2 μM C15, after 6 h (FIG. 7, 8)), the “DDX6(+) RNA granules in PAX7-expressing MuSCs, culture of single myofibres” value is recorded as “maintained”. Further, the “fusion index (number of nuclei per myotube)” value in series [3] (0.2 μM C15, 7 days (FIG. 14)) is listed as “larger fusion index”. The “PAX7 expression of Dmd^mdx MuSCs” value in series [3] (0.2 μM C15, cultured 3 days (FIG. 10, 11)) was “maintain PAX7 expression”. Besides, the myocolony size result in series [3] (0.2 μM C15, long periods of time (7 days; FIG. 12, 13)) is “larger myocolonies”. In series [4] (C2C12 cells, 12 hours, C15 0.1 to 0.2 μM vs sal003 10 μM (FIG. 15, 16)), the “P-elF2α levels (P-elF2α : total elF2α)” value is “increased the P-elF2α levels to a level equivalent to 10 μM sal003”. The “activity of increasing P-elF2α levels after incubation at 37° C. (stability)” value in series [4] (C15 10 μM, incubated at 37° C. for 0-3 weeks, C2C12 cells (FIG. 17, 18)) was “maintained the activity of increasing P-elF2α levels”. The “MuSC associated RNA granules (EDL myofibres)” value in the series with Dmd^mdx mice (2.5 mg/kg/day C15, osmotic pump s.c., two weeks (FIG. 21)) is “maintenance of MuSC associated RNA granules”. Moreover, in the series with Dmd^mdx mice (2.5 mg/kg/day C15, two weeks), the “myofiber cross sectional area of treated muscle” value is “increased” and the “numbers of central nucleated myofibres” value is on record as “decreased”. For the same molecule, the “numbers of PAX7-expressing MuSCs on single EDL myofibres” value with Dmd^mdx mice (2.5 mg/kg/day C15, two weeks (FIG. 23)) is reported as “increased numbers”. Further, the “numbers of PAX7-expressing MuSCs on transverse sections of tibialis anterior (TA)” value in the series on Dmd^mdx mice (2.5 mg/kg/day C15, two weeks (FIG. 24)) is reported as “increased numbers”. For the same molecule, the “numbers of PAX7-expressing MuSCs on transverse sections of diaphragm” value in the series on Dmd^mdx mice (2.5 mg/kg/day C15, two weeks (FIG. 25)) is reported as “increased numbers”.
Take `O=C(/C=C/c1ccccc1)NC(NC(=S)Nc1ccc(Cl)cc1)C(Cl)(Cl)Cl` (stereo not shown) [sal003]: in the series with satellite cells, the “ex vivo expansion of cells” value is listed as “not possible to expand the cells ex vivo at sal003 concentrations lower than 10 μM”.
